Patent US10563263B2, “Genetic polymorphisms associated with statin response and cardiovascular diseases, methods of detection and uses thereof” (CELERA CORPORATION, priority 2010, dated 2020)

Tested on: CHD (fatal CHD, definite non-fatal MI, or revascularization)
Assay: CARE: SNP by pravastatin treatment interaction, logistic regression (synergy index), CHD endpoint
Type: in vivo, human
Details: for OR (synergy index, SNP by pravastatin treatment interaction): CARE; for OR (synergy index), CARE, Prava vs Placebo: CHD endpoint
Source text: CARE was a secondary prevention trial and WOSCOPS was a primary prevention trial.
The CHD endpoint was defined in the analyses herein of CARE as a composite endpoint of fatal CHD, definite non-fatal MI, or revascularization, and was defined in the analyses herein of WOSCOPS as a composite endpoint of death from CHD, nonfatal MI, or revascularization. In both the CARE and WOSCOPS analyses herein, the CVD endpoint was defined as a composite endpoint of CHD or stroke. […] Revascularization, which can include percutaneous transluminal coronary angioplasty (PTCA), stent placement, and coronary artery bypass graft (CABG), are medical interventions that indicate the presence of CHD.
Cohort and case-only study designs were used to identify SNPs associated with response to statin treatment.
For each SNP, a logistic regression model having treatment status as the dependent variable and SNP as the independent predictor variable was performed, with terms for age, sex and race included in the model as covariates. The anti-log of the regression coefficient corresponding to the SNP is an estimate of the synergy index (SI) (Davis et al., “Imputing gene-treatment interactions when the genotype distribution is unknown using case-only and putative placebo analyses-a new method for the Genetics of Hypertension Associated Treatment (GenHAT) study”, Statistics in Medicine 23: (2004), pages 2413-2427). The SI is a ratio of odds ratios: for example in the CARE and WOSCOPS studies, the SI represents the factor by which the odds-ratio of statin treatment, compared with placebo, among major homozygous individuals is multiplied by in order to obtain the odds-ratio of treatment vs. placebo among heterozygous individuals; and multiplied by a second time to obtain the odds-ratio of treatment vs. placebo in minor homozygous individuals. The case-only study design results in a valid estimate of the SI under the assumption that genotype and treatment are independent in the population. In a randomized clinical trial, genotype and treatment are independent by design. The p-value for the regression coefficient corresponding to the SNP results from a test of the null hypothesis that the regression coefficient is equal to zero (SI is equal to one) and thus small p-values indicate the SI is unlikely equal to one and that the effect of treatment likely differs by genotype.
A case-only study design was used to test whether the reduction of CHD events by statin therapy (for CARE and WOSCOPS studies) differed according to genotype (a treatment by SNP interaction) for each SNP evaluated in the study.

CC[C@H](C)C(=O)O[C@H]1C[C@H](O)C=C2C=C[C@H](C)[C@H](CC[C@@H](O)C[C@@H](O)CC(=O)O)[C@H]21 [Pravastatin, pravastatin]
OR (synergy index, SNP by pravastatin treatment interaction) (rs992695, Imputed, allele C, model ADD, NMISS 790, 95% CI 0.4976-0.8019): 0.6317
OR (synergy index, SNP by pravastatin treatment interaction) (rs992695, Imputed, allele C, model DOM, NMISS 790, 95% CI 0.4546-0.8068): 0.6056
OR (synergy index, SNP by pravastatin treatment interaction) (rs9881685, Imputed, allele A, model ADD, NMISS 799, 95% CI 0.3695-0.7488): 0.526
OR (synergy index, SNP by pravastatin treatment interaction) (rs9881685, Imputed, allele A, model DOM, NMISS 799, 95% CI 0.3327-0.7106): 0.4862
OR (synergy index, SNP by pravastatin treatment interaction) (rs9936999, Imputed, allele G, model DOM, NMISS 485, 95% CI 1.294-2.746): 1.885
OR (synergy index), CARE, Prava vs Placebo (SNP rs198462 (A1 G, A2 A), rec model, Caseonly): 1.57
OR (synergy index), CARE, Prava vs Placebo (SNP rs198476 (A1 G, A2 A), rec model, cohort): 1.58
OR (synergy index), CARE, Prava vs Placebo (SNP rs471579 (A1 A, A2 C), add model, Caseonly): 1.26
OR (synergy index), CARE, Prava vs Placebo (SNP rs1324012 (A1 A, A2 G), add model, Caseonly): 0.78
OR (synergy index), CARE, Prava vs Placebo (SNP rs1917527 (A1 A, A2 C), rec model, Caseonly): 0.34
OR (synergy index), CARE, Prava vs Placebo (SNP rs2768652 (A1 C, A2 T), add model, cohort): 1.22
OR (synergy index), CARE, Prava vs Placebo (SNP rs6563805 (A1 A, A2 G), add model, cohort): 0.76
OR (synergy index), CARE, Prava vs Placebo (SNP rs7873371 (A1 A, A2 G), add model, Caseonly): 1.25
OR (synergy index), CARE, Prava vs Placebo (SNP rs12553453 (A1 C, A2 A), add model, cohort): 1.22
OR (synergy index), CARE, Prava vs Placebo (SNP rs12635482 (A1 C, A2 A), rec model, cohort): 0.54
CARE OR (rs1948 allele A vs G (ref), Source CaseOnly): 1.52
CARE OR (rs151806 allele G vs A (ref), Source cohort): 0.60
CARE OR (rs205279 allele A vs G (ref), Source Caseonly): 1.94
CARE OR (rs238272 allele A vs G (ref), Source CaseOnly): 1.44
CARE OR (rs312929 allele G vs A (ref), Source cohort): 0.72
CARE OR (rs316720 allele G vs A (ref), Source cohort): 0.67
CARE OR (rs331555 allele A vs C (ref), Source cohort): 0.72
CARE OR (rs354342 allele A vs G (ref), Source Caseonly): 0.70
CARE OR (rs453625, allele A1 A (non-ref), A2 G (ref), source cohort, endpoint/model not given): 0.66
CARE OR (rs610118 allele G vs A (ref), Source cohort): 0.43
CARE OR (rs669684 allele G vs A (ref), Source cohort): 0.69
CARE OR (rs842796 allele A vs G (ref), Source cohort): 1.72
CARE OR (rs886469 allele G vs A (ref), Source cohort): 0.70
CARE OR (rs969356 allele G vs A (ref), Source cohort): 0.69
CARE OR (rs1035618 allele A vs C (ref), Source Caseonly): 1.38
CARE OR (rs1076733, allele A1 A (non-ref), A2 G (ref), source cohort, endpoint/model not given): 0.70
CARE OR (rs1182878, allele A1 A (non-ref), A2 G (ref), source cohort, endpoint/model not given): 0.79
CARE OR (rs1343563 allele C vs A (ref), Source cohort): 0.61
CARE OR (rs1349282 allele A vs G (ref), Source cohort): 0.55
CARE OR (rs1382787 allele G vs A (ref), Source cohort): 1.37
CARE OR (rs1474396, allele A1 A (non-ref), A2 C (ref), source cohort, endpoint/model not given): 1.35
CARE OR (rs1615197 allele G vs A (ref), Source CaseOnly): 1.54
CARE OR (rs1884897 allele A vs G (ref), Source cohort): 2.24
CARE OR (rs2008165 allele G vs A (ref), Source cohort): 0.57
CARE OR (rs2023650 allele A vs G (ref), Source cohort): 0.76
CARE OR (rs2060411 allele A vs G (ref), Source cohort): 1.37
CARE OR (rs2104506 allele A vs C (ref), Source cohort): 0.75
CARE OR (rs2129571, allele A1 A (non-ref), A2 G (ref), source cohort, endpoint/model not given): 0.62
CARE OR (rs2145540 allele A vs G (ref), Source cohort): 0.51
CARE OR (rs2268650 allele A vs G (ref), Source cohort): 0.64
CARE OR (rs2273816 allele A vs G (ref), Source CaseOnly): 1.56
CARE OR (rs2290193, allele A1 C (non-ref), A2 A (ref), source cohort, endpoint/model not given): 0.53
CARE OR (rs2376764 allele A vs G (ref), Source Caseonly): 0.61
CARE OR (rs2418412 allele G vs A (ref), Source cohort): 2.20
CARE OR (rs2483641, allele A1 A (non-ref), A2 G (ref), source cohort, endpoint/model not given): 0.65
CARE OR (rs2534752 allele G vs A (ref), Source cohort): 1.60
CARE OR (rs2626130 allele G vs A (ref), Source cohort): 1.29
CARE OR (rs2695026 allele A vs G (ref), Source Caseonly): 0.70
CARE OR (rs2793086 allele C vs A (ref), Source cohort): 0.61
CARE OR (rs2941528 allele A vs G (ref), Source CaseOnly): 0.72
CARE OR (rs3000490 allele G vs A (ref), Source cohort): 1.45
CARE OR (rs3213616 allele A vs G (ref), Source cohort): 0.62
